The source of these data is US20100291236A1, “OSMIUM COMPOUNDS” (THE UNIVERSITY OF WARWICK, priority 2006, published 2010).

For data set [1], the system named is human ovarian A2780 cancer cells. As to the kind of experiment: Cytotoxicity towards A2780 cells, sulforhodamine B (SRB) assay. It is filed as cell-based. The procedure:
(§1) Experimental: Cytotoxicity Towards A2780 and A549 Human Cancer Cells. After plating, human ovarian A2780 cancer cells were treated with Os^II complexes on day 3, and human lung A549 cancer cells on day 2, at concentrations ranging from 2 μM to 50 μM. Solutions of the Os^II complexes were made up in 0.125% DMSO to assist dissolution. Cells were exposed to the complexes for 24 h, washed, supplied with fresh medium, allowed to grow for three doubling times (72 h), and then the protein content measured (proportional to cell survival) using the sulforhodamine B (SRB) assay.
(§2) Cancer Cell Cytotoxicity. After plating, human ovarian A2780 cancer cells were treated with OsII complexes on day 3, and human lung A549 cancer cells on day 2, at concentrations ranging from 0.1 μM to 100 μM. Solutions of the OsII complexes were made up in 0.125% DMSO to assist dissolution. Cells were exposed to the complexes for 24 h, washed, supplied with fresh medium, allowed to grow for three doubling times (72 h), and then the protein content measured (proportional to cell survival) using the sulforhodamine B (SRB) assay.10

A short description of data set [2]: Hydrolysis (aquation) kinetics followed by 1H NMR. It is filed as physicochemical. The protocol: Hydrolysis. […] The rate of hydrolysis was determined by fitting plots of concentrations (determined by ^1H NMR peak integrals) versus time to a pseudo first-order equation using ORIGIN version 5.0 (Microcal Software Ltd.).
The next data set concerns 9-ethyl guanine (9EtG). The data set is described as follows: Reaction with nucleobase model 9-ethyl guanine, 1H NMR. It is filed as binding. Conditions: for +1 eq. 9-EtG (% adduct formation): pH* close to 7.4, 298 K; for % 9EtG nucleobase adduct: 1 mM complex, 1 mol equivalent 9EtG, D2O. The procedure:
(§3) Since DNA is believed to be the main target for metal anticancer drugs, nucleobase binding reactions of compounds 3-6, with nucleobase models, 9-ethyl guanine (9EtG) and 9-ethyl adenine (9EtA), were investigated.
(§4) Solutions of 3-6 (1 mM) (present as an equilibrium between 3-6 and their respective aqua adducts as the major species) with 1 mol equivalent of 9EtG (Table 14) or 9EtA (Table 15) in D2O were prepared and ^1H NMR spectra were taken at different time intervals.
(§5) Interactions with Nucleobases. The reaction of compounds 8-12 with nucleobases typically involved addition of a solution containing 1 mol equiv of nucleobase in D2O, to an equilibrium solution of compounds 8-12 in D2O (>90% aqua). The pH* value of the sample was adjusted if necessary so as to remain close to 7.4 (physiological). ^1H NMR spectra of these solutions were recorded at 298 K after various time intervals.

Another data set concerns 9-ethyl adenine (9EtA). As to the kind of experiment: Reaction with nucleobase model 9-ethyl adenine, 1H NMR. The format is binding. Conditions: for +1 eq. 9-EtA (% adduct formation): pH* close to 7.4, 298 K; for % 9EtA nucleobase adduct: 1 mM complex, 1 mol equivalent 9EtA, D2O. The protocol: as §3, §4, §5
A short description of data set [3]: Acidity (pKa / pKa*) of coordinated water, 1H NMR pH* titration. An excerpt: pKa* calculations. […] The chemical shifts of the arene ring protons were plotted against pH*. The pH* titration curves were fitted to the Henderson-Hasselbalch equation, with the assumption that the observed chemical shifts are weighted averages according to the populations of the protonated and deprotonated species.

Data set [4] deals with human lung A549 cancer cells. The data set is described as follows: Cytotoxicity towards A549 cells, sulforhodamine B (SRB) assay. It is filed as cell-based. The procedure: as §1, §2
For orientation: Sulforhodamine B stains cellular protein and so reports cell mass.

The mark [5] stands for this setting: Table 19, read-out: IC50 (μM) in A2780.
[6] abbreviates: Table 7, 24 h exposure, 72 h growth, 2-50 μM, read-out: IC50/μM A2780.
[7] abbreviates: Table 8, compounds 1-6, read-out: A2780 IC50.
Where [8] appears, read: Table 8, compounds 1-6, read-out: A549 IC50.
[9] abbreviates: 298 K, 5% MeOD-d4/95% D2O, pH* 2.
Where [10] appears, read: Table 7, 24 h exposure, 72 h growth, 2-50 μM, read-out: IC50/μM A549.
Where [11] appears, read: 288 K, 5% MeOD-d4/95% D2O, pH* 2.

“Also recorded” adds a separate entry of the source. Where two headings read alike, the source gives them in different places.

As for `Cc1cc(C)c(NC(=O)c2ccccn2)c(C)c1.Cc1ccc(C(C)C)cc1.F[P-](F)(F)(F)(F)F.[Cl][Os+]` [Compound 9, [(η^6-p-cym)Os(N-2,4,6-trimethyl-Ph-picolinamide)Cl]PF6], the “Activity in A2780 cancer cell line” value in data set [1] is “inactive”. Besides, the IC50 in data set [1] (setting [5]) is above 50 µM. The “Rate of hydrolysis” value in data set [2] is listed as “very slowly”. Besides, the “Hydrolysis k/h^−1” value in data set [2] (Table 18, 310 K, 0.8 mM) stood at 0.16 ± 0.01 h⁻¹. The “+1 eq. 9-EtG (% adduct formation)” value with 9-ethyl guanine (9EtG) (t = 0.17 h) and with 9-ethyl guanine (9EtG) (t = 24 h) was 0% each time. The “+1 eq. 9-EtA (% adduct formation)” value in the data set with 9-ethyl adenine (9EtA) (t = 0.17 h) and in the data set with 9-ethyl adenine (9EtA) (t = 24 h) was 0% each time.
For `Cc1ccc(C(C)C)cc1.NCC(=O)[O][Ru][Cl]` [RF01, reference compound], the IC50 in data set [1] (setting [6]) was above 100 µM. The “pKa of water coordinated on hydrolysis (aqua adduct of complex)” value (“pKa of water coordinated on hydrolysis” for short) in data set [3] turned out to be 8.65.
For the molecule `O=C([O][Os][Cl])c1cccc(Br)n1.c1ccc(-c2ccccc2)cc1` [Compound 1, [(η^6-bip)Os(6-Br-pico)Cl]], the IC50 in data set [1] (setting [7]) and in data set [4] (setting [8]) was above 50 µM throughout. In data set [2] (setting [9]), the “Hydrolysis k/h^−1” value was found to be 0.345 ± 0.0002 h⁻¹.
With `C1=CCC2=C(C1)Cc1ccccc1C2.F[P-](F)(F)(F)(F)F.NCCN.[Cl][Ru+]` [HC11, reference compound], the IC50 in data set [1] (setting [6]) and in data set [4] (setting [10]) was 0.5 µM in each case. For the same molecule, the “pKa of water coordinated on hydrolysis” value in data set [3] was determined as 8.01.
Consider `O=C([O][Os][Cl])c1cc(Cl)ccn1.c1ccc(-c2ccccc2)cc1` [Compound 4, [(η^6-bip)Os(4-Cl-pico)Cl]], for which the “Activity in A2780 cancer cell line” value in data set [1] is listed as “toxic”. The IC50 in data set [1] (setting [7]) is 4.8 µM; in data set [4] (setting [8]), 10 to 50 µM. For the same molecule, the “pKa* of the aqua adduct” value in data set [3] stood at 6.30. Also, the “Extent of hydrolysis at equilibrium (aqua adduct)” value in data set [2] (5% MeOD-d4/95% D2O, pH* 2) is on record as 100%. Besides, the “Hydrolysis k/h^−1” value came out at 0.288 ± 0.001 h⁻¹ in data set [2] (setting [11]) and 0.656 ± 0.032 h⁻¹ in data set [2] (setting [9]). Also, the entries for the “% 9EtG nucleobase adduct” value in the data set on 9-ethyl guanine (9EtG) (t = 10), with 9-ethyl guanine (9EtG) (t = 24 h) and with 9-ethyl guanine (9EtG) (t = 72 h) were 0%, 59% and 76%, respectively. Further, the “% 9EtA nucleobase adduct” value with 9-ethyl adenine (9EtA) (t = 10) is listed as 0%; with 9-ethyl adenine (9EtA) (t = 24 h), 62%; in the data set with 9-ethyl adenine (9EtA) (t = 72 h), 71%.
Take “[(η^6-p-cym)Os(O2C6H3CH3NCH3)Cl] [AFAP57]”: the IC50 in data set [1] (setting [6]) is 40 µM; in data set [4] (setting [10]), above 100 µM. Also, the “pKa of water coordinated on hydrolysis” value in data set [3] was determined as 8.31.
Consider `O=C([O][Os][Cl])c1cccc(O)n1.c1ccc(-c2ccccc2)cc1` [Compound 2, [(η^6-bip)Os(6-OH-pico)Cl]], for which the IC50 in data set [1] (setting [7]) and in data set [4] (setting [8]) was above 50 µM in each case.
Consider `C1=CCC2=C(C1)Cc1ccccc1C2.F[B-](F)(F)F.NCCN.[Cl][Os+]` [AFAP65, [(η^6-THA)Os(en)Cl]BF4], for which the IC50 in data set [1] (setting [6]) turned out to be 9.4 µM; in data set [4] (setting [10]) it was 6.4 µM. Also, in data set [3], the “pKa of water coordinated on hydrolysis” value was 6.33.
With `CC(=O)C=C(C)[O][Os][Cl].Cc1ccc(C(C)C)cc1` [AFAP29], the IC50 in data set [1] (setting [6]) and in data set [4] (setting [10]) was above 100 µM in each case. Further, in data set [3], the “pKa of water coordinated on hydrolysis” value turned out to be 7.63.
Consider `O=C([O][Ru][Cl])C1CCCCN1.c1ccc(-c2ccccc2)cc1` [RF16, reference compound], for which, in data set [1] (setting [6]), the IC50 is above 100 µM.
For the molecule `O=C(c1ccccn1)[N]([Os][Cl])c1ccccc1.c1ccc(-c2ccccc2)cc1` [Compound 10, [(η^6-bip)Os(N-Ph-picolinamide)Cl]PF6], the “Hydrolysis k/h^−1” value in data set [2] (Table 18, 288 K, 0.8 mM) is reported as “≧5.9 h^−1”. For the same molecule, the “+1 eq. 9-EtG (% adduct formation)” value in the data set with 9-ethyl guanine (9EtG) (t = 0.17 h) and in the data set on 9-ethyl guanine (9EtG) (t = 24 h) was 73% in each case. Moreover, the “+1 eq. 9-EtA (% adduct formation)” value with 9-ethyl adenine (9EtA) (t = 0.17 h) and with 9-ethyl adenine (9EtA) (t = 24 h) was 0% in each case.
For `[NH2][Pt]([NH2])([Cl])[Cl]` [CDDP, cisplatin, reference compound], the IC50 in data set [1] (setting [5]) is around 0.5 µM.
Take “[(η^6-p-cym)Os(N-2,4-difluoride-Ph-picolinamide)Cl]PF6 [Compound 8]”: in data set [1], the “Activity in A2780 cancer cell line” value is “cytotoxic; also recorded: active”. The IC50 is 8.2 µM in data set [1] (setting [5]) and 10 to 50 µM in data set [4] (Example 6, read-out: IC50 in human lung A549 cancer cell line). The “Activity in A549 cancer cell line” value in data set [4] is “moderately cytotoxic”. Moreover, the “Hydrolysis k/h^−1” value in data set [2] (Table 18, 288 K, 0.8 mM) is recorded as “≧5.9 h^−1”. Besides, the “+1 eq. 9-EtG (% adduct formation)” value in the data set with 9-ethyl guanine (9EtG) (t = 0.17 h) and in the data set on 9-ethyl guanine (9EtG) (t = 24 h) was 56% each time. For the same molecule, the “+1 eq. 9-EtA (% adduct formation)” value with 9-ethyl adenine (9EtA) (t = 0.17 h) and with 9-ethyl adenine (9EtA) (t = 24 h) was 0% each time.
For `Cc1ccc(C(C)C)cc1.O=C1c2cccc[n+]2[Os-]([Cl])[N]1c1ccccc1[N+](=O)[O-]` [Compound 11], the “Hydrolysis k/h^−1” value in data set [2] (Table 18, 288 K, 0.8 mM) is “≧5.9 h^−1”. The “+1 eq. 9-EtG (% adduct formation)” value in the data set on 9-ethyl guanine (9EtG) (t = 0.17 h) and in the data set with 9-ethyl guanine (9EtG) (t = 24 h) was 69% in each case. The “+1 eq. 9-EtA (% adduct formation)” value with 9-ethyl adenine (9EtA) (t = 0.17 h) and in the data set with 9-ethyl adenine (9EtA) (t = 24 h) was 0% each time.
On to `CC(N)C(=O)[O][Ru][Cl].Cc1ccc(C(C)C)cc1` [RF02(a), reference compound], for which, in data set [1] (setting [6]), the IC50 is above 100 µM.
The same measure, in the same setting: under `Cc1ccc(C(C)C)cc1.NCCC(=O)[O][Ru][Cl]` [RF11, reference compound] stands above 100 µM.
For `CC(=O)C=C(C)[O][Ru][Cl].Cc1ccc(C(C)C)cc1` [MMS6, reference compound], the IC50 in data set [1] (setting [6]) is 19 µM; in data set [4] (setting [10]), above 100 µM. Also, the “pKa of water coordinated on hydrolysis” value in data set [3] worked out at 9.4.
For `O=C(O)c1ccnc(C(=O)[O][Os][Cl])c1.c1ccc(-c2ccccc2)cc1` [Compound 5, [(η^6-bip)Os(4-CO2H-pico)Cl]], the IC50 in data set [1] (setting [7]) and in data set [4] (setting [8]) was above 50 µM each time. The “pKa* of the aqua adduct” value in data set [3] came to 6.61. In data set [2] (5% MeOD-d4/95% D2O, pH* 2), the “Extent of hydrolysis at equilibrium (aqua adduct)” value is recorded as 100%. Also, the “Hydrolysis k/h^−1” value amounted to 0.158 ± 0.011 h⁻¹ in data set [2] (setting [11]) and 0.384 ± 0.004 h⁻¹ in data set [2] (setting [9]). Moreover, the “% 9EtG nucleobase adduct” value in the data set on 9-ethyl guanine (9EtG) (t = 10) worked out at 0%; in the data set with 9-ethyl guanine (9EtG) (t = 24 h) it was 100%; in the data set with 9-ethyl guanine (9EtG) (t = 72 h) it was 100%. The “binding to 9EtG (nucleobase adduct formation)” value in the data set with 9-ethyl guanine (9EtG) (time not given) is reported as 100%. Also, the results for the “% 9EtA nucleobase adduct” value in the data set on 9-ethyl adenine (9EtA) (t = 10), in the data set with 9-ethyl adenine (9EtA) (t = 24 h) and in the data set with 9-ethyl adenine (9EtA) (t = 72 h) were 0%, 100% and 100%, respectively. Further, in the data set with 9-ethyl adenine (9EtA) (time not given), the “binding to 9EtA (nucleobase adduct formation)” value is given as 100%.
